Reference: paper PMC10141620 (Viruses, 2023)
≈ marks a conversion by molar mass, not a printed value. Entries after “also recorded” stand apart in the source; their conditions may differ. Read-outs that look alike come from different tables or passages of the source.

What was measured:
[1] = system: NL4-3ΔEnv-NanoLuc/SARS-CoV-2 (USA-WA1/2020) pseudovirus; experiment: microbe, parasite or virus in culture; type: cell-based
[2] = in vitro; details: human
[3] = in vitro; details: human; remark: listed apart in the source
[4] = system: NL4-3ΔEnv-NanoLuc/MERS-CoV pseudovirus; experiment: microbe, parasite or virus in culture; type: cell-based; details: Middle East respiratory syndrome-related coronavirus
[5] = in vitro; details: human; remark: listed apart in the source
[6] = target: CYP2B6 (Homo sapiens, UniProt P20813); experiment: biochemical
CYP2B6, sequence (P20813 whole entry): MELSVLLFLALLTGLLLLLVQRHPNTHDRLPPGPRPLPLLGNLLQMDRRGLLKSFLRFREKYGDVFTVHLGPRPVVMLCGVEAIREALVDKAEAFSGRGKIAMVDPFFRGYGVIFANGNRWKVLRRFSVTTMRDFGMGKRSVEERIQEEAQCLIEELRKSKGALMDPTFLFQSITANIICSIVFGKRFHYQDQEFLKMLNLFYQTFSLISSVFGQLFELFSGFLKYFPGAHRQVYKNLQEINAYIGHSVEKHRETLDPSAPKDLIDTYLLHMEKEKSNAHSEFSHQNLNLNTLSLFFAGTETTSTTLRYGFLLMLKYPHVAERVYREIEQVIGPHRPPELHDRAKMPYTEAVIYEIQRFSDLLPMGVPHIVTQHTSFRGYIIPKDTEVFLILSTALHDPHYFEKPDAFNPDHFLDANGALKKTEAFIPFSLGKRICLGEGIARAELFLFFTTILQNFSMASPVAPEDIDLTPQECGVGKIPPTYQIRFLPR

[7] = physchem; details: pH 7.4
[8] = in vitro; details: human; remark: listed apart in the source
[9] = system: MERS-CoV, EMC/2012; experiment: microbe, parasite or virus in culture; type: cell-based; details: Middle East respiratory syndrome-related coronavirus, Calu-3, read-out: IC50, MERS-CoV
[10] = system: SARS-CoV-2 spike (Wuhan-Hu-1) mediated cell-to-cell fusion, Jurkat donor / 293T/ACE2 acceptor cells; experiment: microbe, parasite or virus in culture; type: cell-based; details: for IC50: Severe acute respiratory syndrome coronavirus 2, 4 h, read-out: IC50, cell-to-cell fusion inhibition
[11] = system: NL4-3ΔEnv-NanoLuc/SARS-CoV-1 pseudovirus; experiment: microbe, parasite or virus in culture; type: cell-based; details: Severe acute respiratory syndrome coronavirus
[12] = in vitro; details: human; remark: listed apart in the source
[13] = system: NL4-3ΔEnvLuc/A-MLV pseudovirus; experiment: microbe, parasite or virus in culture; type: cell-based, amphotropic murine leukemia virus (A-MLV); details: 293T/ACE2, read-out: A-MLV IC50
[14] = in vitro; details: human; remark: listed apart in the source
[15] = Plasma protein binding; details: human, pH 7.4
[16] = target: CYP2C19 (Homo sapiens, UniProt P33261); experiment: biochemical
CYP2C19, sequence (P33261 whole entry): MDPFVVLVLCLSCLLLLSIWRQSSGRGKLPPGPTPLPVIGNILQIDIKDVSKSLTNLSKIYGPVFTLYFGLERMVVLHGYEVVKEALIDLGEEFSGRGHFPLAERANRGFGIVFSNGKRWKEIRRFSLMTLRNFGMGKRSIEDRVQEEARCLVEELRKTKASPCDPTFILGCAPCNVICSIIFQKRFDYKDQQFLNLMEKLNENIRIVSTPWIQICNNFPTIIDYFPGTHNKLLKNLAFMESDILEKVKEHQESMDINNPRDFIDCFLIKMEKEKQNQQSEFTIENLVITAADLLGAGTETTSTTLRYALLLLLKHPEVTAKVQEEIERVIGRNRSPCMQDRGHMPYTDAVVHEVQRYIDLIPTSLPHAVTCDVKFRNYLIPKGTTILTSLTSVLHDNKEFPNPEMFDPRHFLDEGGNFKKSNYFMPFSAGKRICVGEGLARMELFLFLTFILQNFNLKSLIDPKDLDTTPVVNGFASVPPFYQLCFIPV

[17] = system: SARS-CoV-2 strains, SARS-COV-1, and MERS-CoV pseudoviruses; experiment: organism not typed; type: cell-based; details: Calu-3, read-out: IC50, range over all the viral clones evaluated
[18] = in vitro; details: human, microsomes, pH 7.4
[19] = target: CYP1A2 (Homo sapiens, UniProt P05177); experiment: biochemical
CYP1A2, sequence (P05177 whole entry): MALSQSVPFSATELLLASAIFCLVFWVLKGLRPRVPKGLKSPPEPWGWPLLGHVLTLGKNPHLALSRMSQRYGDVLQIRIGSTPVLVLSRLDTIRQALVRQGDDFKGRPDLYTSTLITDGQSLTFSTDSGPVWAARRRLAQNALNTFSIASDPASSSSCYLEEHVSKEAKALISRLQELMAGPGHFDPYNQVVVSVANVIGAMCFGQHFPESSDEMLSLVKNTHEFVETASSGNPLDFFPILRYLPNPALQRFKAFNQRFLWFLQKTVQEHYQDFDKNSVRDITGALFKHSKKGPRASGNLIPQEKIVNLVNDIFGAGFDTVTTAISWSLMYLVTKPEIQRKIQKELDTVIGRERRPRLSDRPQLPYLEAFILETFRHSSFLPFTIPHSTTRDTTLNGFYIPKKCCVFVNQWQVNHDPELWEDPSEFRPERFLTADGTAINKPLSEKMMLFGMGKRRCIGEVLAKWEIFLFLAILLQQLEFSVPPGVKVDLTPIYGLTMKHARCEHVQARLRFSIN

[20] = system: SARS-CoV-1 Urbani; experiment: microbe, parasite or virus in culture; type: cell-based; details: Severe acute respiratory syndrome coronavirus, Calu-3, read-out: IC50, SARS-CoV-1 Urbani
[21] = target: CYP2C8 (Homo sapiens, UniProt P10632); experiment: biochemical
CYP2C8, sequence (P10632 whole entry): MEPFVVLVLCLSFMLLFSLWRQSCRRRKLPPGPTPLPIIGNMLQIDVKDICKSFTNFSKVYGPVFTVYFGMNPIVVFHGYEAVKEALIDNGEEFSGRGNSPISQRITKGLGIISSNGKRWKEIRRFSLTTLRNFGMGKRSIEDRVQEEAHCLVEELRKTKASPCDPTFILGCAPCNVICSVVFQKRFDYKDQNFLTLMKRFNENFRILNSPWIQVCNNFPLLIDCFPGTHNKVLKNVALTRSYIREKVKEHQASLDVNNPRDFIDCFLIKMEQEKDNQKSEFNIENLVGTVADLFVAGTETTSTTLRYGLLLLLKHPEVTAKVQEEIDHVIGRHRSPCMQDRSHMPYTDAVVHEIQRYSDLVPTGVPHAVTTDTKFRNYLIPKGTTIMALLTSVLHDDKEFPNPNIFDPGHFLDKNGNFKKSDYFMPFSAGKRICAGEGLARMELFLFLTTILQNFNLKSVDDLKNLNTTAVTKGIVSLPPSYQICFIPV

[22] = pH 7.4
[23] = target: CYP2D6 (Homo sapiens, UniProt P10635); experiment: biochemical
CYP2D6, sequence (P10635 whole entry): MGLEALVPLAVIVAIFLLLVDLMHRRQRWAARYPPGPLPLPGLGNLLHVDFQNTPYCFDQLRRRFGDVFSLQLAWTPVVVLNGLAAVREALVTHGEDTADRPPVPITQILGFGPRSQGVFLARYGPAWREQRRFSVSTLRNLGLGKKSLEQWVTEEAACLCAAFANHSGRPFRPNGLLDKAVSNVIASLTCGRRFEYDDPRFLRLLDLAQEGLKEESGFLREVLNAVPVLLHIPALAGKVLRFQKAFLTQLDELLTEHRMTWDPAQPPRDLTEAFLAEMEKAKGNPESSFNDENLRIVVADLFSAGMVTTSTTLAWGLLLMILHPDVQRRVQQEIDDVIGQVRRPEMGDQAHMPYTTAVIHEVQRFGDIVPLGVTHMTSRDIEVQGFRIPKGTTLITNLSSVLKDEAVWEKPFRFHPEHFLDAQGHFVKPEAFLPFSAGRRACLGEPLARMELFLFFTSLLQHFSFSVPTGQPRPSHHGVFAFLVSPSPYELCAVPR

[24] = in vitro; details: human; remark: listed apart in the source
[25] = target: CYP2C9 (Homo sapiens, UniProt P11712); experiment: biochemical
CYP2C9, sequence (P11712 whole entry): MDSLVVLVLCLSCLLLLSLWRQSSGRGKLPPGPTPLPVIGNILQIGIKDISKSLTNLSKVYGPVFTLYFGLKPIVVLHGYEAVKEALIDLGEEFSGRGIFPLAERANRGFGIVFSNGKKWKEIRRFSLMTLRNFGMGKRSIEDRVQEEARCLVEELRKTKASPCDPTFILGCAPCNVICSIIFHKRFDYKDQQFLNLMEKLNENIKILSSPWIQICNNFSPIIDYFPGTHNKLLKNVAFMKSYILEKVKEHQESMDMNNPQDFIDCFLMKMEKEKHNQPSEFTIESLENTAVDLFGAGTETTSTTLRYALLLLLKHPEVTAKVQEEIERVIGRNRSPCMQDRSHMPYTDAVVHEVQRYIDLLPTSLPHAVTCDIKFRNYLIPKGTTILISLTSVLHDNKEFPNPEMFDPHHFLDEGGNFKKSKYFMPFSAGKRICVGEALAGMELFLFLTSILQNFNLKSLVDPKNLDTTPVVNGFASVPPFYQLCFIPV

[26] = Caco-2, read-out: MERS-CoV IC50
[27] = Calu-3, read-out: MERS-CoV IC50
[28] = Calu-3, read-out: SARS-CoV-2 USA-WA1/2020 IC50
[29] = 293T/ACE2, read-out: SARS-CoV-1 IC50
[30] = A549-ACE2, read-out: SARS-CoV-1 IC50
[31] = Calu-3, read-out: SARS-CoV-1 IC50

In the case of `Cc1ccc2c(nc3s/c(=C\c4ccc(-c5ccccc5C(=O)O)o4)c(=O)n32)c1C` [NBCoV68], the IC50 ([1]; Pseudovirus, 293T/ACE2) is reported as 3.9 ± 0.1 µM, the IC50 ([1]; Pseudovirus, A549-ACE2) is reported as 2.3 ± 0.07 µM and the CC50 [2] is reported as > 50 µM. The CC50 [3] was > 50 µM.

For `O=c1/c(=C/c2ccc(-c3ccccc3)o2)sc2nc3ccccc3n12` [NBCoV66], the “antiviral activity (in words)” value [1] was “no antiviral activity; also recorded: Inactive”, the IC50 ([1]; Pseudovirus, 293T/ACE2) was > 10 µM and the IC50 ([1]; Pseudovirus, A549-ACE2) was > 10 µM. For the same compound, the CC50 [2] was > 50 µM and the CC50 [3] was > 50 µM.

In the case of `COc1cc(/C=c2/sc3nc4ccccc4n3c2=O)ccc1OCc1nnn[nH]1` [NBCoV80], the IC50 ([1]; Pseudovirus, 293T/ACE2) is reported as > 10 µM, the IC50 ([1]; Pseudovirus, A549-ACE2) is reported as > 10 µM and the CC50 [2] is reported as > 50 µM. The CC50 [3] was > 50 µM.

For `O=C(O)c1ccc(-c2ccc(/C=c3/sc4nc5ccccc5n4c3=O)o2)cc1` [NBCoV73], the IC50 ([1]; Pseudovirus, 293T/ACE2) was > 10 µM, the IC50 ([1]; Pseudovirus, A549-ACE2) was > 10 µM and the CC50 [2] was > 50 µM. For the same compound, the CC50 [3] was > 50 µM.

For `Cc1cc2nc3s/c(=C/c4ccc(-c5ccccc5C(=O)O)o4)c(=O)n3c2cc1C` [NBCoV81], the IC50 ([1]; Pseudovirus, 293T/ACE2) was 0.387 ± 0.064 µM, the IC50 ([1]; Pseudovirus, A549-ACE2) was 0.459 ± 0.023 µM and the CC50 [2] was > 50 µM. The CC50 [3] was > 50 µM.

For `O=C(O)c1ccc(-c2ccc(/C=c3/sc4nc5ccccc5n4c3=O)o2)cc1Cl` [NBCoV75], the IC50 ([1]; Pseudovirus, 293T/ACE2) was 5.2 ± 0.6 µM, the IC50 ([1]; Pseudovirus, A549-ACE2) was 3.3 ± 0.7 µM and the CC50 [2] was > 50 µM. For the same compound, the CC50 [3] was > 50 µM.

In the case of `COc1cc(/C=c2/sc3nc4ccccc4n3c2=O)ccc1OCc1cccc(C(=O)O)c1` [NBCoV77], the IC50 ([1]; Pseudovirus, 293T/ACE2) is reported as > 10 µM, the IC50 ([1]; Pseudovirus, A549-ACE2) is reported as > 10 µM and the CC50 [2] is reported as > 50 µM. The CC50 [3] was > 50 µM.

In the case of `Cc1cc2nc3s/c(=C/c4ccc(-c5cccc(C(=O)O)c5)o4)c(=O)n3c2cc1C` [NBCoV63], the IC50 [4, 26] is reported as 0.075 ± 0.025 µM, the IC50 [4, 27] is reported as 0.22 ± 0.03 µM and the IC50 ([4]; MRC5, read-out: MERS-CoV IC50) is reported as 0.102 ± 0.001 µM. The “antiviral activity (in words)” value [1] was “Active”, the IC50 [1, 28] was 0.12 ± 0.006 µM and the IC50 ([1]; Pseudovirus, 293T/ACE2) was 0.08 ± 0.007 µM. The IC50 ([1]; Pseudovirus, A549-ACE2) was 0.055 ± 0.003 µM, the CC50 [5] was > 50 µM and the IC50 [6] was > 25 µM. For the same compound, the solubility [7] was 6.25 µM (≈ 2.6 µg/mL), the efflux ratio ([8]; Caco-2) was 42.3 and the Papp A→B ([8]; Caco-2, pH 7.4) was 0.00242 ×10⁻⁶ cm/s. For the same compound, the Papp B→A ([8]; Caco-2, pH 7.4) was 0.19 ×10⁻⁶ cm/s, the IC50 [9] was 8.01 µM and the IC50 [10] was 0.9 µM. The IC50 [11, 29] was 0.11 ± 0.0005 µM, the IC50 [11, 30] was 0.059 ± 0.0015 µM and the IC50 [11, 31] was 0.133 ± 0.028 µM. The CC50 [2] was ≥ 50 µM, the CC50 [12] was > 50 µM and the IC50 [13] was 0.303 ± 0.029 µM. For the same compound, the CC50 [14] was > 50 µM, the fraction unbound at 4 h, 5 µM [15] was < 0.005 and the IC50 [16] was > 25 µM. For the same compound, the IC50 [17] was 0.12 to 0.22 µM, the half-life [18] was > 3 h and the microsomal CLint [18] was 3.4 µL/min/mg. The IC50 [19] was > 25 µM, the IC50 [20] was 3.98 µM and the IC50 [21] was > 25 µM. For the same compound, the solubility [22] was “low”, the IC50 [23] was > 25 µM and the CC50 [3] was ≥ 50 µM. The CC50 [24] was 50 µM and the IC50 [25] was > 25 µM.

Compound `Cc1ccc2nc3s/c(=C/c4coc(-c5ccc(Cl)c(C(=O)O)c5)c4)c(=O)n3c2c1` [NBCoV35] has an IC50 [4, 26] of 0.472 ± 0.043 µM, an IC50 [4, 27] of 1.67 ± 0.225 µM and an IC50 ([4]; MRC5, read-out: MERS-CoV IC50) of 0.715 ± 0.043 µM. For the same compound, the IC50 [1, 28] was 0.36 ± 0.035 µM, the IC50 ([1]; Pseudovirus, 293T/ACE2) was 0.198 ± 0.009 µM and the IC50 ([1]; Pseudovirus, 293T/ACE2, read-out: IC50, range over both cell lines) was 0.066 to 0.198 µM. For the same compound, the IC50 ([1]; Pseudovirus, A549-ACE2) was 0.126 ± 0.003 µM, the CC50 [5] was > 50 µM and the “IC50, cell-to-cell fusion inhibition” value ([10]; 4 h) was “the least active”. It also gave an IC50 [10] of 2.8 µM, an IC50 [11, 29] of 0.38 ± 0.069 µM and an IC50 [11, 30] of 0.363 ± 0.011 µM. It also gave an IC50 [11, 31] of 1.25 ± 0.045 µM, a CC50 [2] of ~50 µM and an IC50 [13] of 1.82 ± 0.025 µM. The CC50 [14] was > 50 µM, the CC50 [3] was ~50 µM and the CC50 [24] was > 50 µM.

With `CCC(CC)COC(=O)[C@H](C)N[P@](=O)(OC[C@H]1O[C@@](C#N)(c2ccc3c(N)ncnn23)[C@H](O)[C@@H]1O)Oc1ccccc1` [Remdesivir, reference compound] the IC50 [9] was 17.8 µM, the CC50 [12] was > 50 µM and the IC50 [20] was 1.08 µM.

For `O=C(O)c1cc(C(=O)O)cc(-c2ccc(C=c3sc4nc5ccccc5n4c3=O)o2)c1` [NBCoV62], the IC50 ([1]; Pseudovirus, 293T/ACE2) was > 10 µM, the IC50 ([1]; Pseudovirus, A549-ACE2) was > 10 µM and the CC50 [2] was > 50 µM. For the same compound, the CC50 [3] was > 50 µM.

With `Cc1cc2nc3s/c(=C\c4ccc(-c5ccc(OC(F)(F)F)cc5)o4)c(=O)n3c2cc1C` [NBCoV82] the IC50 ([1]; Pseudovirus, 293T/ACE2) was > 10 µM, the IC50 ([1]; Pseudovirus, A549-ACE2) was > 10 µM and the CC50 [2] was > 50 µM. For the same compound, the CC50 [3] was > 50 µM.
